Measurements from patent US20230059404A1, “Method for Producing Brown Adipocytes” (Kataoka Corporation, priority 2019, published 2023).

Columns and labels:
human fibroblasts = assay: Direct conversion of human fibroblasts to brown adipocytes in serum-free medium SFBAM, efficiency judged comprehensively; format: cell-based; conditions: conclusion from removal experiments
Method: The above human fibroblasts were seeded in 35 mm dishes coated with gelatin (Cat #: 190-15805, manufactured by FUJIFILM Wako Pure Chemical Co.) at 5×10^4, and cultured in DMEM medium (Cat #: 11965092; manufactured by Gibco) supplemented with 10% fetal bovine serum (FBS), 100 U/mL penicillin, 100 μg/mL streptomycin until 80% to 90% confluency at 37° C., 5% CO2.
Hereinafter, this is referred to as serum-free brown adipocyte-inducing medium “SFBAM”.
After the human fibroblasts reached 80% to 90% confluency, the dish medium was replaced with the above SFBAM and the human fibroblasts were cultured in SFBAM for 3 weeks. The medium was changed every 3 days.
The more the number of + marks, the higher the conversion efficiency. […] The mark − indicates no conversion to brown adipocytes.

[1] = test system: β-adrenergic receptor signal pathway in brown adipocytes; assay: Heat production capacity: Ucp1 mRNA after isoproterenol treatment of induced brown adipocytes; format: cell-based, human; conditions: 6 hours treatment of cells induced with Example 3 (3 weeks SFBAM + 1 week SFBAMaM); compared with control treated with H2O; FIG. 9
Method: To quantify gene expression, total RNAs were extracted from fibroblasts treated with the respective compounds using FastGene (registered trademark) RNA basic kit (manufactured by Nippon Genetics Co., Ltd.). Fibroblasts were cultured in parallel using SFBAM as a control, and the total RNAs were extracted from the brown adipocytes induced with compounds and the control cells. After performing reverse-transcription with ReverTraAce (registered trademark) PCR RT Master Mix with gDNA Remover (manufactured by Toyobo Co., Ltd.), the real-time PCR analysis was performed by Power SYBR Green PCR Master Mix (Thermo Fisher Scientific). Three reactions were carried out per level under the following conditions: 40 cycles of reactions at 95° C. for 10 minutes, at 95° C. for 15 seconds, and at 60° C. for 60 seconds, in order. All results were normalized to the quantity of Tbp mRNA.
Regarding the cells, Ucp1 mRNA was quantified in the case after treatment with isoproterenol (β-adrenergic receptor agonist) for 6 hours and in the case after treatment with H2O, which is the solvent.

Row | Compound | conversion efficiency attributed to the single compound (human fibroblasts) | Ucp1 mRNA increase after treatment [1]
1 | C=C[C@@]1(C)CC(=O)[C@]2(O)[C@@]3(C)[C@@H](O)CCC(C)(C)[C@@H]3[C@H](O)[C@H](OC(C)=O)[C@@]2(C)O1 [forskolin, Forskolin] | followed by a high conversion efficiency | –
2 | CC(C)NCC(O)c1ccc(O)c(O)c1 (stereo not drawn) [isoproterenol, Isoproterenol] | – | up to 3.1 fold
3 | CN(CCOc1ccc(CC2SC(=O)NC2=O)cc1)c1ccccn1 (stereo not drawn) [rosiglitazone, Rosiglitazone] | high conversion efficiency | –
